Assays:
Format in all cases: in vivo
Setaria faberi (SETFA) [1] = assay: Pre-emergence Test, SETFA; conditions: 1000 g/ha, evaluated after 13 days
[2] = test system: Amaranthus retoflexus (AMARE); assay: Post-emergence Test, AMARE; conditions: sprayed after 8 days cultivation, 1000 g/ha, evaluated after 13 days
Procedure, shortened: (§1)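 Pots sown with AMARE, SOLNI, SETFA, LOLPE, ECHCG, IPOHE, kept in glasshouse (24/16 °C, 14 h light, 65% humidity), sprayed at 1000 g/ha unless stated, in acetone/water 50:50 with 0.5% Tween 20. Damage scored after 13 days on a 0–5 scale (5=81–100%, 0=0%).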

Setaria faberi (SETFA) [3] = assay: Post-emergence Test, SETFA; conditions: sprayed after 8 days cultivation, 1000 g/ha, evaluated after 13 days
Procedure, shortened: as §1

[4] = test system: Echinochloa crus-galli (ECHCG); assay: Pre-emergence Test, ECHCG; conditions: 1000 g/ha, evaluated after 13 days
Lolium perenne (LOLPE) [5] = assay: Pre-emergence Test, LOLPE; conditions: 1000 g/ha, evaluated after 13 days
[6] = test system: Amaranthus retoflexus (AMARE); assay: Pre-emergence Test, AMARE; conditions: 1000 g/ha, evaluated after 13 days
[7] = test system: Echinochloa crus-galli (ECHCG); assay: Post-emergence Test, ECHCG; conditions: sprayed after 8 days cultivation, 1000 g/ha, evaluated after 13 days
Procedure, shortened: as §1

[8] = test system: Ipornoea hederacea (IPOHE); assay: Post-emergence Test, IPOHE; conditions: sprayed after 8 days cultivation, 1000 g/ha, evaluated after 13 days
Procedure, shortened: as §1

Lolium perenne (LOLPE) [9] = assay: Post-emergence Test, LOLPE; conditions: sprayed after 8 days cultivation, 1000 g/ha, evaluated after 13 days
Procedure: (§2) Seeds of a variety of test species are sown in standard soil in pots (Amaranthus retoflexus (AMARE), Solarium nigrum (SOLNI), Setaria faberi (SETFA), Lolium perenne (LOLPE), Echinochloa crus-galli (ECHCG), Ipornoea hederacea (IPOHE)). After 8 days cultivation under controlled conditions in a glasshouse (at 24° C./16° C., day/night; 14 hours light; 65% humidity), the plants are sprayed with an aqueous spray solution derived from the formulation of the technical active ingredient in acetone/water (50:50) solution containing 0.5% Tween 20 (polyoxyethylene sorbitan monolaurate, CAS RN 9005-64-5). Compounds are applied at 1000 g/ha unless otherwise stated. The test plants are then grown in a glasshouse under controlled conditions in a glasshouse (at 24° C./16° C., day/night; 14 hours light; 65% humidity) and watered twice daily. After 13 days the test is evaluated for the percentage damage caused to the plant. The biological activities are shown in the following table on a five-point scale (5=81-100%; 4=61-80%; 3=41-60%; 2=21-40%; 1=10-20%; 0=0%; −=not tested).

Solarium nigrum (SOLNI) [10] = assay: Pre-emergence Test, SOLNI; conditions: 1000 g/ha, evaluated after 13 days
Solarium nigrum (SOLNI) [11] = assay: Post-emergence Test, SOLNI; conditions: sprayed after 8 days cultivation, 1000 g/ha, evaluated after 13 days
Procedure: as §2

[12] = test system: Ipornoea hederacea (IPOHE); assay: Pre-emergence Test, IPOHE; conditions: 1000 g/ha, evaluated after 13 days

Row | SMILES | percentage damage caused to the plant, SETFA (Setaria faberi (SETFA) [1]) | percentage damage caused to the plant, AMARE [2] | percentage damage caused to the plant, SETFA (Setaria faberi (SETFA) [3]) | percentage damage caused to the plant, ECHCG [4] | percentage damage caused to the plant, LOLPE (Lolium perenne (LOLPE) [5]) | percentage damage caused to the plant, AMARE [6] | percentage damage caused to the plant, ECHCG [7] | percentage damage caused to the plant, IPOHE [8] | percentage damage caused to the plant, LOLPE (Lolium perenne (LOLPE) [9]) | percentage damage caused to the plant, SOLNI (Solarium nigrum (SOLNI) [10]) | percentage damage caused to the plant, SOLNI (Solarium nigrum (SOLNI) [11]) | percentage damage caused to the plant, IPOHE [12]
1 | CO/N=C(\C)c1cccc2c1c(=O)c(C(=O)OC)nn2-c1ccc(OC(F)(F)F)cc1 [Compound P1, methyl 5-[(E)-N-methoxy-C-methyl-carbonimidoyl]-4-oxo-1-[4-(trifluoromethoxy)phenyl] cinnoline-3-carboxylate] | 5 (5=81-100%) | 2 (2=21-40%) | 4 (4=61-80%) | 5 (5=81-100%) | 4 (4=61-80%) | 1 (1=10-20%) | 5 (5=81-100%) | 2 (2=21-40%) | 4 (4=61-80%) | 1 (1=10-20%) | 3 (3=41-60%) | 1 (1=10-20%)
2 | C=C(OC)c1cccc2c1c(=O)c(C(=O)OC)nn2-c1ccc(OC(F)(F)F)cc1 [Compound P4, methyl 5-(1-methoxyvinyl)-4-oxo-1-[4-(trifluoromethoxy)phenyl] cinnoline-3-carboxylate] | 5 (5=81-100%) | 0 (0=0%) | 4 (4=61-80%) | 5 (5=81-100%) | 5 (5=81-100%) | 0 (0=0%) | 4 (4=61-80%) | 4 (4=61-80%) | 4 (4=61-80%) | 0 (0=0%) | 0 (0=0%) | 0 (0=0%)
3 | O=C(O)c1nn(-c2ccc(OC(F)(F)F)cc2)c2cccc(-c3ncco3)c2c1=O [Compound P5, 5-oxazol-2-yl-4-oxo-1-[4-(trifluoromethoxy)phenyl] cinnoline-3-carboxylic acid] | 1 (1=10-20%) | 1 (1=10-20%) | 4 (4=61-80%) | 0 (0=0%) | 0 (0=0%) | 0 (0=0%) | 3 (3=41-60%) | 0 (0=0%) | 2 (2=21-40%) | 0 (0=0%) | 2 (2=21-40%) | 0 (0=0%)
4 | COC(=O)c1nn(-c2ccc(OC(F)(F)F)cc2)c2cccc(-c3ccc(F)cc3)c2c1=O [Compound P6, methyl 5-(4-fluorophenyl)-4-oxo-1-[4-(trifluoromethoxy)phenyl] cinnoline-3-carboxylate] | 0 (0=0%) | 0 (0=0%) | 0 (0=0%) | 0 (0=0%) | 0 (0=0%) | 0 (0=0%) | 0 (0=0%) | 0 (0=0%) | 0 (0=0%) | 0 (0=0%) | 0 (0=0%) | 0 (0=0%)

Source: patent publication US12649722B2, “Herbicidal cinnoline derivatives” (SYNGENTA CROP PROTECTION AG, priority 2020, dated 2026)
